The text below walks through data of a melting point compilation (Tetko et al.; mined from patent text by program, amines drawn as free bases though some values may be those of a salt).

Some results are limits rather than exact numbers.

The melting point is the temperature of the solid-liquid transition. On to `Cn1ccnc1Sc1ccc(Nc2c(C#N)cnc3cc(/C=C/CCCN4CCCC4)ccc23)cc1Cl`, for which the melting point was 217 to 222 °C.

The molecule `CCCn1nc2c(N)nc3ccccc3c2c1NCC` came in with a melting point of 193 to 194 °C.

The molecule `CN(N=Cc1cnc[nH]1)C(=O)c1[nH]c2ccccc2c1-c1ccccc1` registered a melting point of 248 to 250 °C.

`COc1ccc2c(c1)C(=O)C(Cc1cccc(N)c1)C(C)O2` (stereo not given) yielded a melting point of 110 to 112 °C.

For `COc1ccc(/C=C(\C#N)c2ccccc2Cl)cc1OC1CCCC1`, the melting point lay in the range of 94 to 95 °C.

With `Oc1ccc2c(-c3ccc(Cl)cc3)noc2c1`, the melting point stood at 203 °C.

`O=C(Nc1cccnc1)N1CCN(c2cc(-c3ccc(F)cc3F)ncn2)CC1` had a melting point of 171 to 172 °C.

In turn, `O=C(C=Cc1ccccc1)c1ccc(N2CCN(c3ccncc3)CC2)cc1` registered a melting point of 208 to 210 °C.

Regarding `CC(C)(O)COc1c(-c2ccc(S(N)(=O)=O)cc2)cnn(-c2ccc(F)cc2)c1=O`, the melting point was in the range of 155 to 158 °C.

`CC(C)(C)OC(=O)N1CCc2[nH]c3cccc(Br)c3c2CC1` yielded a melting point of 223 to 225 °C.

Regarding `CN(C)C1(c2ccccc2)CCC(C#N)(N2CCCC2)CC1` (stereo not given), the melting point is 136 to 142 °C.

Molecule `COc1ccc(-n2c(=O)c(C(=O)O)nc3c(Cl)cccc32)cc1` displayed a melting point of 198 to 200 °C.

Turning to `Cc1ccc(C)n1-c1ccc(C(=O)N(C)C)cc1`, the melting point is 102 to 104 °C.

`CC(C)(C)C(O)C(CSc1ccc(Cl)cc1)n1cncn1` (stereo not given) gave a melting point of 84 °C.

Molecule `Cc1cc(Cl)nnc1-c1ccccc1` returned a melting point of 122 °C.

With `Cn1cnc(COc2nn3c(-c4cccc(F)c4)nnc3cc2-c2ccccc2)n1`, the melting point is 250 to 251 °C.

Molecule `COP1(=O)C=Cc2ccccc21` (stereo not given) displayed a melting point of 89 to 90 °C.

On to `CCCCCCCCCCCCCCCC(=O)OCC1OC(n2cc(C)c(=O)[nH]c2=O)CC1F` (stereo not given), for which the melting point was in the range of 65 to 66 °C.

In turn, `NS(=O)(=O)c1ccc(-c2noc(-c3cnn4c(C(F)F)cc(-c5ccc(C(F)(F)F)cc5)nc34)n2)s1` gave a melting point of 278 °C.

In turn, `CCN1CCC(N(C)S(=O)(=O)c2ccc(Nc3nccc(Nc4ccc(F)cc4)n3)cc2)CC1` had a melting point of 162 to 163 °C.

As to `COc1cc(N2CCC(N3CCN(C)CC3)CC2)ccc1N`, the melting point was 94 to 99 °C.

`CCCc1c[nH]nc1OCCCc1cn(-c2ccc(C(F)(F)F)cn2)nc1OCC` displayed a melting point of 121 to 122 °C.

Molecule `CCCCNC(=O)Cc1ccc2c(c1)c(Cc1ccc(C(=O)NS(=O)(=O)c3ccccc3C)cc1OC)cn2C` returned a melting point of 108 to 110 °C.

`CCCCc1ncc(C=C2C(=O)Nc3ccccc32)n1Cc1ccc(C(=O)OCC)cc1` had a melting point of 169 to 171 °C.

In turn, `CCSc1cc(S(N)(=O)=O)sc1SCC` displayed a melting point of 82 to 84 °C.

Molecule `N#Cc1ccc2c(c1)Sc1ccccc1CC2` returned a melting point of 145 to 147 °C.

`CCCCCCCCCCCCCCCCOC(=O)c1cnc(C(=O)OCCCCCCCCCCCCCCCC)c2ccccc12`: the melting point fell in the range of 80.7 to 81.4 °C.

In the case of `CN(CCNC(=NCCCOc1cccc(CN2CCCCC2)c1)NC#N)CCN(Cc1ccc(F)cc1)c1ccccn1`, the melting point turned out to be 106 °C.

Molecule `CCNC(=O)c1cc(N(C)C)ccc1[Si](C)(C)C` returned a melting point of 141 to 143 °C.

In the case of `Clc1ccc(C2(Cn3cncn3)OCCO2)s1`, the melting point was 117 °C.

As to `CN1C2CCC1CN(c1ccc(C#Cc3ccc(NC(=O)c4ccccc4)cc3)nn1)C2`, the melting point lay in the range of 88 to 96 °C.

`O=C(Nc1ccc2cc(CN3CCCCCC3)cnc2c1)c1ccc(-c2ccc(Cl)cc2)cc1` showed a melting point of 204 °C.

Molecule `NC(=O)C(F)(I)C(F)(F)F` (stereo not given) returned a melting point of 75 to 77 °C.

The molecule `CN(c1cccc2cc(C3=NCC(C)(CCOS(C)(=O)=O)S3)[nH]c12)S(=O)(=O)c1cccs1` (stereo not given) had a melting point of 149 to 150 °C.

Turning to `O=C(O)c1ccc2c(c1)Sc1ccccc1CC2O` (stereo not given), the melting point was 202 to 204 °C.

On to `Cc1ccccc1[C@@H](CCC(=O)O)Oc1cc(OCc2cccnc2)ccc1[N+](=O)[O-]`, for which the melting point lay within 117 to 119 °C.

Molecule `C=CCOC(=O)c1ccc(NC(=O)C(C(N)=O)c2ccc3c(c2)C(C)(C)CCC3(C)C)cc1` (stereo not given) had a melting point of 210 to 211 °C.

For the molecule `COC(=O)C1CCN(S(=O)(=O)c2ccc(Cl)c(COc3cccc4c(-n5ccnc5)cc(C)nc34)c2Cl)C1` (stereo not given), the melting point was 180 °C.

The molecule `C=C(C)c1csc(SC)c1` had a melting point of 71 to 73 °C.

As for `CC(=O)NC=Cc1ccc(OC(C)=O)cc1`, the melting point is 165 to 166 °C.

`O=S(=O)(Oc1ccc2sccc2c1)c1ccccc1` registered a melting point of 80 to 81 °C.

`Cc1cc(OCc2ccccc2)cc(OCCCc2ccccc2)c1C(=O)O` showed a melting point of 109 to 111 °C.

Molecule `COC(=O)c1coc2cc(Oc3cc(COCc4ccccc4)ncn3)ccc12` returned a melting point of 85 to 86 °C.

As to `Oc1cccc(OCCCC(O)(O)C(F)(F)F)c1`, the melting point was in the range of 76 to 77 °C.

In the case of `COc1ccc(S(=O)(=O)NC(C)c2cc(F)ccc2-c2ccccc2F)cc1` (stereo not given), the melting point lay within 133 to 135 °C.

In turn, `CC(=O)Nc1ccc(C=O)c(F)c1F` displayed a melting point of 154 °C.

Molecule `O=S(=O)(c1ccc(F)cc1)N1CCCC1c1ccc(F)cc1` (racemic) displayed a melting point of 121 °C.

In turn, `COC(=O)c1c(N)cc(Cl)c(Cl)c1Cl` showed a melting point of 123 to 124 °C.

In the case of `CCOc1ccc(C(=O)CCC(=O)O)c(OCC)c1`, the melting point was 139 to 141 °C.

`CN(C)CCOc1ccc(CNC(=O)c2ccccc2N)cc1` had a melting point of 104 to 105 °C.

Turning to `CCOC(=O)c1c(Cl)nc2ccc(OC)cc2c1CCl`, the melting point lay in the range of 215 to 219 °C.

For `COc1ccc(C2CC(=O)N(C(N)=O)N2Cc2ccccc2)cc1OC1CCCC1` (stereo not given), the melting point was 148 to 149 °C.

Molecule `CN(C)N=C(N)Nc1c(Cl)cccc1Cl` came in with a melting point above 280 °C.

`CC1=C(C2OC(=O)NC2=O)CCCC1` (stereo not given) came in with a melting point of 104 to 106 °C.

`CCCCC12CCC3C4CCC(=O)C=C4CCC3C1CCC2O` (stereo not given): the melting point fell in the range of 169 to 170 °C.

In the case of `COC(=O)C1CCC(=O)N1C(=O)Nc1ccccc1` (stereo not given), the melting point was 91 to 92 °C.

Turning to `CC(=O)Oc1ccc(C=CC(=O)NC2CCc3ccccc32)cc1[N+](=O)[O-]` (stereo not given), the melting point is 177 to 178 °C.

`CCOC(=O)c1ccc(Br)cc1COC(C)=O`: the melting point is 51.5 to 52.5 °C.

The molecule `CCCCOC(=O)CNC(=O)c1ccc2cc(C(=O)O)[nH]c2c1` showed a melting point of 267 to 268 °C.

Molecule `O=C(Cn1cccc(OCc2ccccc2)c1=O)ON1C(=O)CCC1=O` had a melting point of 187 to 188 °C.

For `CCNC(=O)N1CCN(c2ccc(NC(=O)c3cc(=O)c4cc(F)cc(N5CCN(C)CC5)c4o3)cc2)CC1`, the melting point lay within 236 to 238 °C.

For `O=C(O)CC1c2cc(C(F)(F)F)ccc2C(=O)N1CC(F)(F)F` (racemic), the melting point is 202 to 204 °C.

The molecule `CCOP(=O)(OCC)C1CNc2ccc(C(F)(F)F)cc2C1` (stereo not given) had a melting point of 112 °C.

`CCOc1nc(O)cc(CCl)n1` had a melting point of 159 to 161 °C.

In the case of `CN1C(=O)CC[C@]2(C)c3ccc(-c4ccc(F)cc4)cc3CC[C@@H]12`, the melting point fell in the range of 121 to 122 °C.

As for `CCOC(=O)c1cc(=O)c2cc3c(c(CC4CO4)c2o1)CCCC3` (stereo not given), the melting point lay in the range of 138 to 140 °C.

Take `CC(C)OC(=O)OCC1(C)COC(=O)OC1`: the melting point lay within 64 to 65 °C.

Turning to `O=C(O)c1ccc(Br)cc1Cc1ccccc1`, the melting point worked out at 137 °C.

Take `O[C@@H](CNCCOc1ccc2oc(-c3ccon3)cc2c1)COc1ccccc1Cl`: the melting point was 93 to 96 °C.

Take `CC(C)Oc1c(-c2ccc(S(C)(=O)=O)cc2)cnn(-c2ccc(F)cc2)c1=O`: the melting point is 135 to 137 °C.

Molecule `COc1ccc2c(c1)OCC(NNc1ncnc3c1ncn3C1OC(CO)C(O)C1O)C2` (stereo not given) came in with a melting point of 205 to 207 °C.

In turn, `COC(=O)C1=C(C)NC(C)=C(C(=O)OCCCCCCOc2cc(-c3ccc4c(c3)OCO4)[nH]n2)C1c1cccc([N+](=O)[O-])c1` (stereo not given) returned a melting point of 167 to 169 °C.

Turning to `N#CCOc1cc2c(cc1C#Cc1ccccc1)NC(=O)CC(c1cccc(-n3ccnc3)c1)=N2`, the melting point was determined as 214 °C.

As for `Nc1ccc(-n2cnn(-c3ccc(OC(F)(F)F)cc3)c2=O)cc1`, the melting point lay within 115 to 120 °C.

`O=C(Cn1c(-c2cccc(Cl)c2)nc2cccnc21)Nc1ccccn1` yielded a melting point of 165 to 166 °C.

In the case of `C#CCN1CSCC1=O`, the melting point fell in the range of 29 to 31 °C.

For `CCCCCCC(=O)Nc1cccc2c1C(=O)c1ccccc1C2=O`, the melting point was 133 °C.

The molecule `COC1=CC(=O)c2c(C)cc(C)cc2C1=O` registered a melting point of 146 to 148 °C.

As for `NC(=O)c1nn(-c2ccc3c(c2)OCO3)c2c1CCc1ccc(NC(=O)c3cccnc3N)cc1-2`, the melting point is 265 to 267 °C.

Regarding `CCOC(=O)C1=C(C(C)C)Nc2n[nH]cc2C1c1ccccc1OC` (stereo not given), the melting point is 179 to 180 °C.

Take `O=C1Nc2cc(C(F)(F)F)ccc2C1c1cc(Cl)ccc1O` (stereo not given): the melting point fell in the range of 266 to 268 °C.

`CC(=O)NCCCC(C)C1CC=C2C3=C(CCC21C)C1(C)CCC(O)C(C)(C)C1CC3` (stereo not given) displayed a melting point of 219 to 221 °C.

For the molecule `COc1ccc(CSc2ccc(S(=O)(=O)N=CN(C)C)s2)cc1`, the melting point fell in the range of 92 to 101 °C.

Consider `CCC(C)OC(=O)C(C(=O)Nc1nc(C)cs1)=C1SCS1` (stereo not given), for which the melting point was 153 to 154 °C.

As for `CCCCC(O)c1cccc(O)c1` (stereo not given), the melting point lay in the range of 120 to 122 °C.

`CCCOC12CCC(=O)C3(C)Oc4c(O)ccc5c4C31CCN(C)C2C5` (stereo not given) displayed a melting point of 193 to 195 °C.

Regarding `c1ccc(CO[C@@H]2CCC[C@H]2Nc2nc(N3CCN(c4ccccc4)CC3)nc3c2SCC3)cc1`, the melting point is 100 to 105 °C.

As for `NCCN1CCC(Nc2nc3ccccc3n2Cc2ccc(CO)o2)CC1`, the melting point was found to be 165 °C.

On to `O=C(Nc1ccc(Cc2nnn[nH]2)cc1)C(F)(F)C(F)(F)C(F)(F)C(F)(F)C(F)(F)C(F)(F)C(F)(F)F`, for which the melting point is 193 to 194 °C.

With `COc1ccc(C(C)(O)c2cc(OCc3ccccc3)ccc2OC)cn1` (stereo not given), the melting point fell in the range of 53 to 54 °C.
